In patent US11351151B2, “Compound having anticancer activity and preparation method and application” (3D Medicines (Beijing) Co., Ltd., priority 2016, dated 2022) one finds IC50 data, which are given here for 3 compounds.

One may read the IC50 as the midpoint of a concentration-inhibition curve. Read a high IC50 as lower potency.

What all share (assay): Cell proliferation assay (Alamar Blue)
Common to all, as to format: cell-based
Background: Alamar Blue is a resazurin reagent that responds to reducing activity.

One experiment concerns HT1080. As to conditions: Homo sapiens, HT-1080, 144 h; HT1080 tumor cell line; 6 days. Summed up:
(§1)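 AlamarBlue fluorescence (ex 560, em 590 nm) after 6-day compound exposure; IC50 by four-parameter fit. Nine 3.16-fold dilutions, top 30 or 100 μM, duplicate wells. Log-phase cells plated at line-optimised density, 4 h pre-incubation.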

The subject of the next experiment is SNU475. Particulars: Homo sapiens, SNU-475, 144 h; SNU475 liver cancer cell line; 6 days. Summed up:
as §1

The test system of a further experiment is SNU739. As to conditions: SNU-739, 144 h; SNU739 liver cancer cell line; 6 days. The method, boiled down: as §1
The next experiment relates to JHH1. Particulars: 144 h; JHH1 liver cancer cell line; 6 days. The method, boiled down:
as §1

The next experiment relates to SNU398. As to conditions: Homo sapiens, SNU-398, 144 h; SNU398 liver cancer cell line; 6 days. Summed up:
as §1

The test system of the next experiment is JHH2. As to conditions: JHH-2, 144 h; JHH2 liver cancer cell line; 6 days. The method, boiled down: as §1
The next experiment deals with KM12. As to conditions: Homo sapiens, 144 h; KM12 tumor cell line; 6 days. Summed up: as §1
A further experiment deals with JHH6. Particulars: 144 h; JHH6 liver cancer cell line; 6 days. Summed up:
as §1

The test system of a further experiment is 22RV1. Particulars: Homo sapiens, 144 h; 22RV1 tumor cell line; 6 days. The method, boiled down: as §1
The next experiment relates to KASUMI-1. Particulars: Homo sapiens, 144 h; KASUMI-1 (leukemia cells); 6 days. The method, boiled down: as §1
Another experiment has as its system SNU761. Particulars: 144 h; SNU761 liver cancer cell line; 6 days. Summed up: as §1
The next experiment has as its system NCl-H661. As to conditions: 144 h; NCl-H661 tumor cell line; 6 days. The method, boiled down:
as §1

The next experiment has as its system HuTu80. Particulars: Homo sapiens, 144 h; HuTu80 tumor cell line; 6 days. The method, boiled down:
as §1

A further experiment concerns SNU182. As to conditions: Homo sapiens, SNU-182, 144 h; SNU182 liver cancer cell line; 6 days. The method, boiled down: as §1
The test system of the next experiment is HUH6. As to conditions: Homo sapiens, HuH-6, 144 h; HUH6 liver cancer cell line; 6 days. Summed up:
as §1

The subject of the next experiment is SNU449. As to conditions: Homo sapiens, SNU-449, 144 h; SNU449 liver cancer cell line; 6 days. Summed up: as §1
In a further experiment the test system is NCl-H1703. Particulars: 144 h; NCl-H1703 (lung cancer cells); 6 days. Summed up: as §1
Another experiment relates to HT55. Particulars: Homo sapiens, 144 h; HT55 tumor cell line; 6 days. The method, boiled down:
as §1

For the next experiment, the system named is HCCLM3. As to conditions: Homo sapiens, 144 h; HCCLM3 tumor cell line; 6 days. Summed up:
as §1

The subject of the next experiment is HLF. Particulars: 144 h; HLF liver cancer cell line; 6 days. Summed up: as §1
The next experiment has as its system SNU387. Particulars: Homo sapiens, SNU-387, 144 h; SNU387 liver cancer cell line; 6 days. Summed up:
as §1

The subject of the next experiment is NCl-H526. As to conditions: 144 h; NCl-H526 tumor cell line; 6 days. Summed up:
as §1

The test system of a further experiment is SK-HEP-1. As to conditions: Homo sapiens, SK-HEP1, 144 h; SK-HEP-1 liver cancer cell line; 6 days. The method, boiled down:
as §1

Take `Cc1ccc(F)c(NC(=O)Nc2ccc(-c3cccc4c3c(N)nn4C(=O)C[C@H](N)C(=O)N[C@@H](CCC(=O)N[C@@H](CCC(=O)N[C@@H](CCC(=O)N[C@@H](CCC(=O)N[C@@H](CCC(=O)N[C@@H](CCC(=O)N[C@@H](CCC(=O)N[C@@H](CCC(=O)N[C@@H](CCC(=O)O)C(=O)O)C(=O)O)C(=O)O)C(=O)O)C(=O)O)C(=O)O)C(=O)O)C(=O)O)C(=O)O)cc2)c1` [Compound 3]: the IC50 is 25.8 µM in the experiment with HT1080; 9.62 µM with SNU475; 8.05 µM with SNU739; 14.9 µM in the experiment on JHH1; 17.1 µM in the experiment on SNU398; 40.7 µM in the experiment on JHH2. For the same compound, the IC50 in the experiment with KM12 is 4.63 µM; with JHH6, 7.51 µM; in the experiment with 22RV1 it was 10.3 µM; in the experiment with KASUMI-1, 0.19 µM; in the experiment with SNU761 it was 29.1 µM; with NCl-H661 it was 21.1 µM. Further, the IC50 in the experiment with HuTu80 turned out to be 7.33 µM; with SNU182, 54.2 µM; in the experiment on HUH6, 1.55 µM; in the experiment with SNU449, 14.6 µM; with NCl-H1703 it was 0.15 µM; with HT55, 31.3 µM. Moreover, the half-inhibitory concentration (IC50) in the experiment with HCCLM3 came out at 25.7 µM; with HLF it was 7.73 µM; with SNU387, 40.1 µM; in the experiment with NCl-H526 it was 11.3 µM; with SK-HEP-1, 15.8 µM.

On to `Cc1ccc(F)c(NC(=O)Nc2ccc(-c3cccc4c3c(N)nn4C(=O)C[C@H](N)C(=O)N[C@@H](CCC(=O)O)C(=O)O)cc2)c1` [Compound 1], for which the concentration for half-maximal inhibition (IC50) in the experiment on HT1080 is 13.2 µM; in the experiment with SNU475 it was 4.85 µM; in the experiment on SNU739 it was 4.56 µM; in the experiment on JHH1, 8.15 µM; in the experiment on SNU398 it was 2.61 µM; in the experiment with JHH2, 28.9 µM. The IC50 in the experiment with KM12 worked out at 1.89 µM; in the experiment on JHH6 it was 3 µM; with 22RV1 it was 6.69 µM; with KASUMI-1 it was 0.051 µM; with SNU761, 9.53 µM; in the experiment on NCl-H661, 7.09 µM. The half-inhibitory concentration (IC50) amounted to 3.17 µM in the experiment with HuTu80; 19.9 µM in the experiment with SNU182; 0.13 µM in the experiment with HUH6; 5.21 µM with SNU449; 0.04 µM in the experiment on NCl-H1703; 16.8 µM in the experiment with HT55. The IC50 with HCCLM3 came to 11.4 µM; in the experiment on HLF it was 3.98 µM; in the experiment with SNU387, 12.8 µM; with NCl-H526 it was 6.6 µM; in the experiment with SK-HEP-1, 4.59 µM.

As to `Cc1ccc(F)c(NC(=O)Nc2ccc(-c3cccc4c3c(N)nn4C(=O)C[C@H](N)C(=O)O)cc2)c1` [Compound 10], the half-inhibitory concentration (IC50) was 8.82 µM with HT1080; 3.88 µM with SNU475; 3.87 µM in the experiment on SNU739; 7.43 µM with JHH1; 2.99 µM with SNU398; 25.1 µM in the experiment on JHH2. Also, the IC50 was 1.47 µM in the experiment on KM12; 2.46 µM with JHH6; 6.21 µM in the experiment with 22RV1; 0.042 µM in the experiment on KASUMI-1; 9.04 µM in the experiment with SNU761; 5.47 µM with NCl-H661. The concentration for half-maximal inhibition (IC50) came out at 2.63 µM in the experiment on HuTu80; 13.3 µM with SNU182; 0.15 µM in the experiment with HUH6; 4.91 µM in the experiment with SNU449; 0.021 µM with NCl-H1703; 14.9 µM with HT55. Also, the IC50 in the experiment on HCCLM3 turned out to be 8.97 µM; in the experiment with HLF, 3.87 µM; with SNU387 it was 10.5 µM; with NCl-H526, 4.39 µM; in the experiment with SK-HEP-1, 2.75 µM.
